Values after ≈ are worked out from the molar mass of the structure shown. Read-outs that look alike come from different tables or passages of the source. Ends that are not written are not given here.
Experiments:
Assay in all cases: microbe, parasite or virus in culture
Type in all cases: cell-based
[1] = system: Staphylococcus aureus NCTC 4163; conditions: for MIC: read-out: MIC S. aureus; for MIC S. aureus: peptide 0.125 to […], no visible growth
Experimental: (§1) Antimicrobial activity of peptides was examined against three reference strains: Staphylococcus aureus NCTC 4163, Escherichia coli NCTC 8196 and Pseudomonas aeruginosae NCTC 6749 dedicated for the determination of antibacterial activity. The bacterial strains were stored in glycerol stock (Sigma-Aldrich, St. Louis, MO, USA) at −80 °C. Before testing, the strains were cultured aerobically in Tryptic Soy Agar (BD DIFCO, Franklin Lakes, NJ, USA) at 37 °C for 20 h. The susceptibility of microorganisms to the peptides was determined by the broth microdilution assay according to the procedures outlined by CLSI [49]. […] In order to prepare the bacterial suspension, an overnight culture of bacteria in Tryptic Soy Broth (BD DIFCO, Franklin Lakes, NJ, USA) was diluted in sterile saline to a final concentration of approximately 10^7 CFU/mL of bacteria. Aliquots (5 µL) of bacterial suspension were added to each peptide solution. The sterility control (containing the tested peptide in broth) and the growth control (containing the reference strain in broth without the tested peptide) were also set up. The plates were incubated at 37 °C under aerobic conditions. The results are expressed as the minimal inhibitory concentration (MIC) of the compounds in question. The MIC was defined as the lowest concentration at which no visible growth of bacteria (no turbidity) was observed. The assay was performed in triplicate.

[2] = system: Escherichia coli NCTC 8196; conditions: for MIC E. coli: peptide 0.125 to […], no visible growth
Experimental: as §1

[3] = system: Pseudomonas aeruginosae NCTC 6749; conditions: for MIC P. aeruginosae: broth microdilution (CLSI), Mueller–Hinton broth, 37 °C, peptide 0.125 to […], no visible growth, triplicate
Experimental: as §1

[4] = same MIC expressed as molar concentration, broth microdilution (CLSI), Mueller–Hinton broth, 37 °C, triplicate
[5] = broth microdilution (CLSI), Mueller–Hinton broth, 37 °C, triplicate

Compound	MIC P. aeruginosae [3]	also measured
CNC(C)C1CCC(N)C(OC2C(N)CC(N)C(OC3OCC(C)(O)C(NC)C3O)C2O)O1 (stereo not drawn) [Gentamicin, gentamicin, reference compound]	–	MIC ([1]; Staphylococcus aureus, NCTC4163): 0.5 µg/mL; MIC ([1]; Staphylococcus aureus, NCTC4163, same MIC expressed as molar concentration, broth microdilution (CLSI), Mueller–Hinton broth, 37 °C, triplicate): 1.1 µM; MIC ([2]; Escherichia coli, NCTC8196): 1 µg/mL; MIC ([2]; Escherichia coli, NCTC8196, same MIC expressed as molar concentration, broth microdilution (CLSI), Mueller–Hinton broth, 37 °C, triplicate): 2.1 µM; MIC ([3]; Pseudomonas, NCTC6749, read-out: MIC P. aeruginosae): 0.25 µg/mL (≈ 0.523 µM)
CC[C@H](C)[C@H](N)C(=O)N[C@@H](CC(N)=O)C(=O)N[C@@H](CC(C)C)C(=O)N[C@@H](CCCCN)C(=O)N[C@@H](C)C(=O)N[C@@H](CC(C)C)C(=O)N[C@@H](C)C(=O)N[C@@H](C)C(=O)N[C@@H](CC(C)C)C(=O)N[C@@H](C)C(=O)N[C@@H](CCCCN)C(=O)N[C@@H](CCCCN)C(=O)N[C@H](C(=O)N[C@@H](CC(C)C)C(N)=O)[C@@H](C)CC [MP, mastoparan]	256 µg/mL (≈ 173 µM)	MIC [1, 4]: 5.4 µM; MIC [2, 4]: 21.6 µM
CC[C@H](C)[C@H](NC(=O)[C@H](CCCCN)NC(=O)[C@H](CCCCN)NC(=O)[C@H](C)NC(=O)[C@H](CC(C)C)NC(=O)[C@H](C)NC(=O)[C@H](C)NC(=O)[C@H](CC(C)C)NC(=O)[C@H](C)NC(=O)[C@H](CCCCN)NC(=O)[C@H](CC(C)C)NC(=O)[C@H](CC(N)=O)NC(=O)[C@@H](NC(=O)[C@H](CCCCN)NC(=O)CNC(=O)[C@H](CC(C)C)NC(=O)[C@H](CC(C)C)NC(=O)[C@H](Cc1ccc(O)cc1)NC(=O)CNC(=O)[C@H](C)N)[C@@H](C)CC)C(=O)N[C@@H](CC(C)C)C(N)=O [TP10, transportan 10, reference compound]	256 µg/mL (≈ 117 µM)	–
CC[C@H](C)[C@H](NC(=O)[C@H](CCCCN)NC(=O)[C@H](CCCCN)NC(=O)[C@H](C)NC(=O)[C@H](CC(C)C)NC(=O)[C@H](C)NC(=O)[C@H](C)NC(=O)[C@H](CC(C)C)NC(=O)[C@H](C)NC(=O)[C@H](CCCCN)NC(=O)[C@H](CC(C)C)NC(=O)[C@H](CC(N)=O)NC(=O)[C@@H](NC(=O)[C@H](CCCCN)NC(=O)CNC(=O)[C@H](CC(C)C)NC(=O)[C@H](CC(C)C)NC(=O)[C@H](Cc1ccc(O)cc1)NC(=O)CNC(=O)[C@H](C)NC(=O)[C@H](CO)NC(=O)[C@H](CC(N)=O)NC(=O)[C@H](CC(C)C)NC(=O)[C@@H](NC(=O)[C@H](Cc1c[nH]c2ccccc12)NC(=O)CN)[C@@H](C)O)[C@@H](C)CC)C(=O)N[C@@H](CC(C)C)C(N)=O [TP, transportan, reference compound]	>256 µg/mL	–
CC[C@H](C)[C@H](NC(=O)[C@H](CCCCN)NC(=O)[C@H](CCCCN)NC(=O)[C@H](C)NC(=O)[C@H](CC(C)C)NC(=O)[C@H](C)NC(=O)[C@H](C)NC(=O)[C@H](CC(C)C)NC(=O)[C@H](C)NC(=O)[C@H](CCCCN)NC(=O)[C@H](CC(C)C)NC(=O)[C@H](CC(N)=O)NC(=O)[C@@H](NC(=O)[C@H](CCCCNC(=O)Cn1cnc2ccccc21)NC(=O)CNC(=O)[C@H](CC(C)C)NC(=O)[C@H](CC(C)C)NC(=O)[C@H](Cc1ccc(O)cc1)NC(=O)CNC(=O)[C@H](C)N)[C@@H](C)CC)C(=O)N[C@@H](CC(C)C)C(N)=O [[Lys^7 (BnzAc)] TP10]	>256 µg/mL	MIC S. aureus [1, 5]: 256 µg/mL (≈ 109 µM); MIC E. coli [2, 5]: >256 µg/mL
CC[C@H](C)[C@H](NC(=O)[C@H](CCCCN)NC(=O)[C@H](CCCCN)NC(=O)[C@H](C)NC(=O)[C@H](CC(C)C)NC(=O)[C@H](C)NC(=O)[C@H](C)NC(=O)[C@H](CC(C)C)NC(=O)[C@H](C)NC(=O)[C@H](CCCCN)NC(=O)[C@H](CC(C)C)NC(=O)[C@H](CC(N)=O)NC(=O)[C@@H](NC(=O)[C@H](CCCCNC(=O)Cn1c(-c2ccccc2Cl)nc2ccccc21)NC(=O)CNC(=O)[C@H](CC(C)C)NC(=O)[C@H](CC(C)C)NC(=O)[C@H](Cc1ccc(O)cc1)NC(=O)CNC(=O)[C@H](C)N)[C@@H](C)CC)C(=O)N[C@@H](CC(C)C)C(N)=O [[Lys^7 (ClBnzAc)] TP10]	>256 µg/mL	MIC S. aureus [1, 5]: >256 µg/mL; MIC E. coli [2, 5]: >256 µg/mL
CCCCCCCCCc1nc2ccccc2n1CC(=O)NCCCC[C@H](NC(=O)CNC(=O)[C@H](CC(C)C)NC(=O)[C@H](CC(C)C)NC(=O)[C@H](Cc1ccc(O)cc1)NC(=O)CNC(=O)[C@H](C)N)C(=O)N[C@H](C(=O)N[C@@H](CC(N)=O)C(=O)N[C@@H](CC(C)C)C(=O)N[C@@H](CCCCN)C(=O)N[C@@H](C)C(=O)N[C@@H](CC(C)C)C(=O)N[C@@H](C)C(=O)N[C@@H](C)C(=O)N[C@@H](CC(C)C)C(=O)N[C@@H](C)C(=O)N[C@@H](CCCCN)C(=O)N[C@@H](CCCCN)C(=O)N[C@H](C(=O)N[C@@H](CC(C)C)C(N)=O)[C@@H](C)CC)[C@@H](C)CC [[Lys^7 (NBnzAc)] TP10]	>256 µg/mL	MIC S. aureus [1, 5]: >256 µg/mL; MIC E. coli [2, 5]: >256 µg/mL
AGYLLGINLKALAALAKKILYKPITNF-NH2 [[desLys^7] TP10-[Lys^2, Ile^4] RIP]	>256 µg/mL	–
GWTLNSAGYLLGPINLKALAALAKKIL-NH2 [Galp, galparan, reference compound]	>256 µg/mL	–
INLKALAALAKKILYKPITNF-NH2 [MP-[Lys^2, Ile^4] RIP]	>256 µg/mL	–
KALAALAKKIL-NH2 [MP (4–14)]	>256 µg/mL	–
KALAALAKKILYKPITNF-NH2 [MP (4–14)-[Lys^2, Ile^4] RIP]	>256 µg/mL	–
KALAALAKKILYSPWTNF-NH2 [MP (4–14)-RIP]	>256 µg/mL	–
YKPITNF-NH2 [[Lys^2, Ile^4] RIP, reference compound]	>256 µg/mL	–
YKPITNFINLKALAALAKKIL-NH2 [[Lys^2, Ile^4] RIP-MP]	>256 µg/mL	–
